Molecules are shown by their SMILES. Bridge positions count the residues as written; N and C are the ends. Square brackets hold non-standard residues; d marks the D form. Peptide text beside a SMILES is read from it. R8 = C=CCCCCCC[C@@](C)(N)C(=O)O; S5 = C=CCCC[C@](C)(N)C(=O)O

We go through 1 molecule from ChEMBL document CHEMBL5346962, “Discovery of Sulanemadlin (ALRN-6924), the First Cell-Permeating, Stabilized α-Helical Peptide in Clinical Development” (J Med Chem, 2023).

The assay deals with SJSA-1. The assay can be described thus: Cytotoxicity against human SJSA-1 cells incubated for 72 hrs in presence of 10% FBS by MTT assay. To be noted: SJSA-1, 72 h. Background: Formazan colour is commonly taken as a measure of viable cells.

Broadly, the EC50 is the concentration that produces a half-maximal response. For `CC(=O)N[C@@H](CC(C)C)C(=O)N[C@H](C(=O)N[C@@H](Cc1ccccc1)C(=O)N[C@]1(C)CCCCCC/C=C\CCC[C@@](C)(C(=O)N[C@@H](C)C(=O)N[C@@H](C)C(=O)N[C@@H](C)C(=O)O)NC(=O)[C@H](CC(C)C)NC(=O)[C@H](CCC(N)=O)NC(=O)[C@H](C)NC(=O)[C@H](Cc2c[nH]c3ccccc23)NC(=O)[C@H](Cc2ccc(O)cc2)NC(=O)[C@H](CCC(=O)O)NC1=O)[C@@H](C)O` (Ac-LTF[R8]EYWAQL[S5]AAA-OH; staple (Z) 4-11), the EC50 is 2.5 µM.
